# Measured values: patent US8748491B2, “Dietary and pharmaceutical compositions containing tricyclic diterpenes and their derivatives and their uses” (priority 2006, dated 2014)
# Assays:
# [1] = test system: mouse; assay: Marble burying test; assay type: in vivo; details: mouse; for NUMBER OF MARBLES COVERED BY SAWDUST % change from control / NUMBER OF MARBLES COVERED BY SAWDUST mean ± s.e.m.: Table 5
# Method: The method applied here follows that described by Broekkamp et al., supra. Mice (n=15 per treatment group) were individually placed in transparent plastic cages (33×21×18 cm) with 5 cm of sawdust on the floor and 25 marbles (diameter 1 cm) grouped in the centre of the cage. A second, up-turned, cage served as a lid. The number of marbles covered by sawdust (by at least two-thirds) was counted at the end of the 30-minute test period. Tests were performed by investigators blind to the drug treatment protocol.
# Prior to testing, all test cages and marbles were “impregnated” by leaving 10 naive mice in each cage for 15 minutes. […]
# Data were analysed by comparing treated groups with vehicle control using unpaired Student's t-tests.
# [2] = molecular target: T1, Monoamine oxidase A (MAO-A) (Homo sapiens, UniProt P21397); assay: Monoamine oxidase A inhibition (p-tyramine substrate, H2O2/vanillic acid/HRP readout); assay type: biochemical
# T1 sequence (P21397 1-527): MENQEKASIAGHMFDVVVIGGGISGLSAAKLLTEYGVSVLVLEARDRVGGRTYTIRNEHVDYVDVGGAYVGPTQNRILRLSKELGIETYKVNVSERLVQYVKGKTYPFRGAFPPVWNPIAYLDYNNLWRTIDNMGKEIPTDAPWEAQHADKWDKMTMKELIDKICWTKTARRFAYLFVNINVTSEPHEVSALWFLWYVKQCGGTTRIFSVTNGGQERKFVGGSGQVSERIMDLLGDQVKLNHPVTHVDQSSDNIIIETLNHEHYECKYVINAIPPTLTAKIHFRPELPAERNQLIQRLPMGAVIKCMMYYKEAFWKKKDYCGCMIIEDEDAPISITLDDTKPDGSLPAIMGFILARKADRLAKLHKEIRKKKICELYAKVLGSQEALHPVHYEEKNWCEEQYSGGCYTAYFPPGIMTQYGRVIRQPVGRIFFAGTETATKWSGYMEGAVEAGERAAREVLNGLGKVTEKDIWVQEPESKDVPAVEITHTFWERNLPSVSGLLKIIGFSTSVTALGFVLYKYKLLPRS
# Method: The organic amines p-tyramine or benzylamine were used as substrates for the Monoamine oxidase A (MAO-A) and B (MAO-B) enzymes respectively. The H2O2 produced by this reaction was quantified by reaction with vanillic acid, catalysed by horse radish peroxidase (HRP).
# The reactions were carried out in polystyrene microtitre plates. The MAO enzymes (final concentration 2 U/ml) were mixed with either p-tyramine (Sigma, final concentration 0.5 mM) or benzylamine (Sigma, final concentration 0.5 mM) as appropriate and the chromogenic solution (containing vanillic acid (Fluka), 4-aminoantipyrine (Fluka) and horse radish peroxidase (Sigma), final concentrations 0.25 mM, 0.125 mM and 1 U/ml respectively) in 0.2 M potassium phosphate buffer, pH 7.6. The reactions were followed in a microtitre plate absorbance reader e.g. Spectramax M5 (Molecular Devices Corporation). Absorbance readings at 495 nm were taken every 15 seconds for 40 minutes and the initial reaction velocities calculated by linear regression using SOFTmaxPro (Molecular Devices Corporation).
# The effect of tricyclic diterpenes and their derivatives according to formula I on the monoamine oxidase enzymes was determined by their inclusion in the assay at a range of concentrations between 0.03 and 100 μM for 10 minutes prior to and during the incubation with substrate. To determine the effect of the compounds on the HRP catalyzed portion of the reaction, the MAO enzyme was replaced by H2O2 (Molecular Probes, final concentration 0.2 mM). The reactions containing MAO-A and MAO-B were both inhibited by tricyclic diterpenes and their derivatives according to formula I in a dose-dependent manner, whilst the control reaction, was unaffected. The measured IC50 values for inhibition of monoamine oxidase activity by carnosic acid, carnosic acid-12-methyl ether and 20-deoxo-carnosol are shown in Table 3.
# [3] = molecular target: T2, human serotonin re-uptake transporter (hSERT) (Homo sapiens, UniProt P31645); assay: Inhibition of tritiated serotonin uptake into transfected HEK-293 cells; assay type: cell-based; details: HEK-293 cells expressing hSERT; 20 nM [3H] serotonin, 40 min, 37° C.; mean ± s.e.m.
# T2 construct: host or cells: HEK-293
# Description: HEK-293 cells stably expressing the human serotonin re-uptake transporter (hSERT) were obtained from R. Blakely, Vanderbilt University, USA. The cells were routinely grown in Dulbecco's Modified Eagle's Medium (Bioconcept) containing 10% fetal calf serum, penicillin, streptomycin, L-glutamine and the antibiotic G418 and passaged by trypsinisation. On the day of assay, cells from 80% confluent flasks were harvested by gentle washing with warm phosphate buffered saline (PBS). […] Serotonin uptake into the cells was determined by addition of radio-labelled [^3H] serotonin (GE Healthcare) at a concentration of 20 nM, and incubation for 40 minutes at 37° C. with gentle shaking. At the end of this time unincorporated label was removed by filtration though Unifilter 96 GF/B plates (Perkin Elmer) using a Tomtec Mach III M cell harvester. The incorporated serotonin retained on the plates was quantified by liquid scintillation counting using Microscint-40/Topcount (Perkin Elmer).
# [4] = test system: mouse; assay: Porsolt's forced swim test (FST); assay type: in vivo
# Method: Mice were individually placed in cylinders (24.5 cm height, 19.5 cm internal diameter) containing 13.5 cm depth of water (22±0.5° C.) for a period of 6 minutes, behavioural parameters of interest being analysed during the final 4 minutes of the test, since the first 2 minutes include vigorous activity. Six cylinders were placed in a Perspex box, thus enabling six mice to be tested simultaneously.
# Automatic monitoring of swim tests was enabled through the use of VideoMot2 software (TSE Technical and Scientific Equipment GmbH, Bad Homburg, Germany). All to experiments were observed via a black and white CCD camera. The rest:locomotion and stop:start thresholds, as determined by setting parameters in the software programme, determine the number of pixels which must change for a movement to be registered, enabling the software to determine whether a mouse is swimming or resting. The parameters which are automatically recorded include: rest time and locomotion time (ms), % rest and % locomotion, distance travelled (cm), speed of travel (cm/s) and number of stops.
# Data were analysed by comparing treated groups with the untreated control group using Fisher's PLSD (StatView, SAS Institute Inc., Cary, N.C., USA)
# T2 sequence (P31645 whole entry): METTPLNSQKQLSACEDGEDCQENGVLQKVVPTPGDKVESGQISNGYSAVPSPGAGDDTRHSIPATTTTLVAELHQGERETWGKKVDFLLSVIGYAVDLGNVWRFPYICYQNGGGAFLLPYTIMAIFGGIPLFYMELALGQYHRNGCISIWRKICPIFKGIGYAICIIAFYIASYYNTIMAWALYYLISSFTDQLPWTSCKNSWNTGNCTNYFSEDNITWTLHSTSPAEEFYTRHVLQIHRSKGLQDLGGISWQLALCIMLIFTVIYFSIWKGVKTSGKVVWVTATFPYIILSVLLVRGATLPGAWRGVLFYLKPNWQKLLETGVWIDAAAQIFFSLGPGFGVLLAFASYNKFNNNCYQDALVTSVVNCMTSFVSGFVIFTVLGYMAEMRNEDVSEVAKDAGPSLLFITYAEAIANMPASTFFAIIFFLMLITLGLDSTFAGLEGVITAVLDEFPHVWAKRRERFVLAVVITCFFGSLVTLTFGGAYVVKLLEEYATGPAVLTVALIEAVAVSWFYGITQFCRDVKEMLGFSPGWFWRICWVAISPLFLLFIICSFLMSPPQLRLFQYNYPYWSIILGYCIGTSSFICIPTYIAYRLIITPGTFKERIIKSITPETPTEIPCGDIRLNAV
smiles,measurement,setting,value
"CC(C)c1cc2c(c(O)c1O)[C@@]1(C(=O)O)CCCC(C)(C)[C@@H]1CC2 [Carnosic acid, carnosic acid]",NUMBER OF MARBLES COVERED BY SAWDUST % change from control,[1]; 3 mg/kg i.p. −30 min,−8%
same,NUMBER OF MARBLES COVERED BY SAWDUST mean ± s.e.m.,[1]; 3 mg/kg i.p. −30 min,21.9 ± 1.3
same,NUMBER OF MARBLES COVERED BY SAWDUST % change from control,[1]; 10 mg/kg i.p. −30 min,−4%
same,NUMBER OF MARBLES COVERED BY SAWDUST mean ± s.e.m.,[1]; 10 mg/kg i.p. −30 min,22.7 ± 0.5
same,NUMBER OF MARBLES COVERED BY SAWDUST % change from control,[1]; 30 mg/kg i.p. −30 min,−63%
same,NUMBER OF MARBLES COVERED BY SAWDUST mean ± s.e.m.,[1]; 30 mg/kg i.p. −30 min,8.7 ± 2.9
same,marble burying behaviour (in words),[1]; highest dose tested (30 mg/kg) i.p.,clearly and significantly reduced marble burying behaviour
same,IC50,[2],4.4 ± 0.3 µM
same,IC50,[3],36.4 ± 6.8 µM
same,Duration of immobility (% change from control),"[4]; 10 mg/kg i.p., −30 min",−29%
same,Duration of immobility (% change from control),"[4]; 20 mg/kg i.p., −30 min",−30%
same,Duration of immobility (% change from control),"[4]; 30 mg/kg i.p., −30 min",−29%
same,Duration of immobility (% change from control),"[4]; 200 mg/kg p.o., −24, −5, −1 h",−38%
same,immobility behaviour (in words),"[4]; all doses tested, i.p. and p.o. administration",significantly reduced immobility behaviour
